From ChEMBL document CHEMBL1212769, “Multiple-dose safety, tolerability, and pharmacokinetics of oral nemonoxacin (TG-873870) in healthy volunteers” (Antimicrob Agents Chemother, 2010)

Legend:
[1] = Cmax in human at 500 […], po measured on day 1; type: ADME, organism-based; parameters: dose 500 mg/kg, route oral; conditions: in vivo
[2] = Cmax in human at 75 […], po measured on day 10; type: ADME, organism-based; parameters: dose 75 mg/kg, route oral; conditions: in vivo
[3] = Cmax in human at 500 […], po measured on day 10; type: ADME, organism-based; parameters: dose 500 mg/kg, route oral; conditions: in vivo
[4] = Cmax in human at 750 […], po measured on day 1; type: ADME, organism-based; parameters: dose 750 mg/kg, route oral; conditions: in vivo
[5] = Cmax in human at 750 […], po measured on day 10; type: ADME, organism-based; parameters: dose 750 mg/kg, route oral; conditions: in vivo
[6] = Cmax in human at 1000 […], po measured on day 1; type: ADME, organism-based; parameters: dose 1000 mg/kg, route oral; conditions: in vivo
[7] = Cmax in human at 1000 […], po measured on day 10; type: ADME, organism-based; parameters: dose 1000 mg/kg, route oral; conditions: in vivo
[8] = Tmax in human at 75 […], po measured on day 1; type: ADME, organism-based; parameters: route oral; conditions: in vivo
[9] = Tmax in human at 250 […], po measured on day 1; type: ADME, organism-based; parameters: route oral; conditions: in vivo
[10] = Tmax in human at 75 […], po measured on day 10; type: ADME, organism-based; parameters: dose 75 mg/kg, route oral; conditions: in vivo
[11] = AUC (0 to 24 hrs)in human at 500 mg/kg, po measured on day 10; type: ADME, organism-based; parameters: time < 24 hr, dose 500 mg/kg, route oral; conditions: plasma
[12] = AUC (0 to last) in human at 500 mg/kg, po measured on day 16; type: ADME, organism-based; parameters: time 0 - last, dose 500 mg/kg, route oral; conditions: plasma
[13] = Tmax in human at 250 […], po measured on day 10; type: ADME, organism-based; parameters: dose 250 mg/kg, route oral; conditions: in vivo
[14] = Tmax in human at 500 […], po measured on day 1; type: ADME, organism-based; parameters: route oral; conditions: in vivo
[15] = Tmax in human at 500 […], po measured on day 10; type: ADME, organism-based; parameters: dose 500 mg/kg, route oral; conditions: in vivo
[16] = Tmax in human at 500 […], po measured on day 16; type: ADME, organism-based; parameters: dose 500 mg/kg, route oral; conditions: in vivo
[17] = Tmax in human at 750 […], po measured on day 1; type: ADME, organism-based; parameters: route oral; conditions: in vivo
[18] = Tmax in human at 750 […], po measured on day 10; type: ADME, organism-based; parameters: dose 750 mg/kg, route oral; conditions: in vivo
[19] = Tmax in human at 1000 […], po measured on day 1; type: ADME, organism-based; parameters: route oral; conditions: in vivo
[20] = Tmax in human at 1000 […], po measured on day 10; type: ADME, organism-based; parameters: route oral; conditions: in vivo
[21] = AUC (0 to 24 hrs) in human at 75 mg/kg, po measured on day 1; type: ADME, organism-based; parameters: time < 24 hr, dose 75 mg/kg, route oral; conditions: plasma
[22] = AUC (0 to last) in human at 75 mg/kg, po measured on day 10; type: ADME, organism-based; parameters: time 0 - last, dose 75 mg/kg, route oral; conditions: plasma
[23] = AUC (0 to 24 hrs) in human at 250 mg/kg, po measured on day 1; type: ADME, organism-based; parameters: time < 24 hr, dose 250 mg/kg, route oral; conditions: plasma
[24] = AUC (0 to last) in human at 250 mg/kg, po measured on day 10; type: ADME, organism-based; parameters: time 0 - last, dose 250 mg/kg, route oral; conditions: plasma
[25] = AUC (0 to 24 hrs) in human at 750 mg/kg, po measured on day 1; type: ADME, organism-based; parameters: time < 24 hr, dose 750 mg/kg, route oral; conditions: plasma
[26] = AUC (0 to last) in human at 750 mg/kg, po measured on day 10; type: ADME, organism-based; parameters: time 0 - last, dose 750 mg/kg, route oral; conditions: plasma
[27] = AUC (0 to 24 hrs) in human at 1000 […], po measured on day 1; type: ADME, organism-based; parameters: time < 24 hr, dose 1000 mg/kg, route oral; conditions: plasma
[28] = AUC (0 to last) in human at 1000 […], po measured on day 10; type: ADME, organism-based; parameters: time 0 - last, dose 1000 mg/kg, route oral; conditions: plasma
[29] = Terminal half life in human at 750 […], po measured on day 10; type: ADME, organism-based; parameters: route oral; conditions: in vivo, read-out: beta t1/2 (converted)
[30] = Terminal half life in human at 75 […], po measured on day 10; type: ADME, organism-based; parameters: route oral; conditions: in vivo, read-out: beta t1/2 (converted)
[31] = Terminal half life in human at 500 […], po measured on day 10; type: ADME, organism-based; parameters: route oral; conditions: in vivo, read-out: beta t1/2 (converted)
[32] = Terminal half life in human at 1000 […], po measured on day 10; type: ADME, organism-based; parameters: route oral; conditions: in vivo, read-out: beta t1/2 (converted)
[33] = Terminal half life in human at 250 […], po measured on day 10; type: ADME, organism-based; parameters: route oral; conditions: in vivo, read-out: beta t1/2 (converted)
[34] = Clearance in human assessed as compound recovered in urine at 75 mg/kg, po measured on day 1 up to 24 hrs post dose; type: ADME, organism-based; parameters: dose 75 mg/kg, route oral; conditions: read-out: amount in urine
[35] = Clearance in human assessed as compound recovered in urine at 75 mg/kg, po measured on day 10 up to 24 hrs post dose; type: ADME, organism-based; parameters: dose 75 mg/kg, route oral; conditions: read-out: amount in urine
[36] = Clearance in human assessed as compound recovered in urine at 250 mg/kg, po measured on day 1 up to 24 hrs post dose; type: ADME, organism-based; parameters: dose 250 mg/kg, route oral; conditions: read-out: amount in urine
[37] = Clearance in human assessed as compound recovered in urine at 250 mg/kg, po measured on day 10 up to 24 hrs post dose; type: ADME, organism-based; parameters: dose 250 mg/kg, route oral; conditions: read-out: amount in urine
[38] = Clearance in human assessed as compound recovered in urine at 500 mg/kg, po measured on day 1 up to 24 hrs post dose; type: ADME, organism-based; parameters: dose 500 mg/kg, route oral; conditions: read-out: amount in urine
[39] = Clearance in human assessed as compound recovered in urine at 500 mg/kg, po measured on day 10 up to 24 hrs post dose; type: ADME, organism-based; parameters: dose 500 mg/kg, route oral; conditions: read-out: amount in urine
[40] = Clearance in human assessed as compound recovered in urine at 500 mg/kg, po measured on day 16 up to 24 hrs post dose; type: ADME, organism-based; parameters: dose 500 mg/kg, route oral; conditions: read-out: amount in urine
[41] = Clearance in human assessed as compound recovered in urine at 750 mg/kg, po measured on day 1 up to 24 hrs post dose; type: ADME, organism-based; parameters: dose 750 mg/kg, route oral; conditions: read-out: amount in urine
[42] = Clearance in human assessed as compound recovered in urine at 750 mg/kg, po measured on day 10 up to 24 hrs post dose; type: ADME, organism-based; parameters: dose 750 mg/kg, route oral; conditions: read-out: amount in urine
[43] = Clearance in human assessed as compound recovered in urine at 1000 […], po measured on day 1 up to 24 hrs post dose; type: ADME, organism-based; parameters: dose 1000 mg/kg, route oral; conditions: read-out: amount in urine
[44] = Clearance in human assessed as compound recovered in urine at 1000mg/kg, po measured on day 10 up to 24 hrs post dose; type: ADME, organism-based; conditions: read-out: amount in urine
[45] = Oral clearance in human at 75 mg/kg measured on day 1; type: ADME, organism-based; parameters: dose 75 mg/kg; conditions: in vivo
[46] = Oral clearance in human at 75 mg/kg measured on day 10; type: ADME, organism-based; parameters: dose 75 mg/kg; conditions: in vivo
[47] = Oral clearance in human at 250 mg/kg measured on day 1; type: ADME, organism-based; parameters: dose 250 mg/kg; conditions: in vivo
[48] = Oral clearance in human at 250 mg/kg measured on day 10; type: ADME, organism-based; parameters: dose 250 mg/kg; conditions: in vivo
[49] = Oral clearance in human at 500 mg/kg measured on day 1; type: ADME, organism-based; parameters: dose 500 mg/kg; conditions: in vivo
[50] = Oral clearance in human at 500 mg/kg measured on day 10; type: ADME, organism-based; parameters: dose 500 mg/kg; conditions: in vivo
[51] = Oral clearance in human at 500 mg/kg measured on day 16; type: ADME, organism-based; parameters: dose 500 mg/kg; conditions: in vivo
[52] = Oral clearance in human at 1000 […] measured on day 1; type: ADME, organism-based; parameters: dose 1000 mg/kg; conditions: in vivo
[53] = Oral clearance in human at 1000 […] measured on day 10; type: ADME, organism-based; parameters: dose 1000 mg/kg; conditions: in vivo
[54] = Renal clearance in human at 75 […], po measured on day 1; type: ADME, organism-based, Kidney; parameters: route oral; conditions: in vivo, read-out: CL_renal (converted)

Cmax [1]: 5120 ng/mL
Cmax [2]: 514 ng/mL
Cmax [3]: 5560 ng/mL
Cmax [4]: 5750 ng/mL
Cmax [5]: 6820 ng/mL
Cmax [6]: 7750 ng/mL
Cmax [7]: 8200 ng/mL
Tmax [8]: 1.09 h
Tmax [9]: 1.25 h
Tmax [10]: 55.2 min
AUC at 24 h [11]: 38600 ng·h/mL
AUC(0-t) [12]: 26000 ng·h/mL
Tmax [13]: 1.09 h
Tmax [14]: 1 h
Tmax [15]: 1.31 h
Tmax [16]: 3.07 h
Tmax [17]: 1.5 h
Tmax [18]: 1.51 h
Tmax [19]: 2 h
Tmax [20]: 2.07 h
AUC(0-t) at 24 h [21]: 3780 ng·h/mL
AUC(0-t) [22]: 5450 ng·h/mL
AUC(0-t) at 24 h [23]: 13700 ng·h/mL
AUC(0-t) [24]: 18700 ng·h/mL
AUC(0-t) at 24 h [25]: 46100 ng·h/mL
AUC(0-t) [26]: 69300 ng·h/mL
AUC(0-t) at 24 h [27]: 59600 ng·h/mL
AUC(0-t) [28]: 88300 ng·h/mL
half-life [29]: 1180 min
half-life [30]: 1380 min
half-life [31]: 1110 min
half-life [32]: 1170 min
half-life [33]: 1050 min
dose excreted at 24 h [34]: 56.4%
dose excreted at 24 h [35]: 56.7%
dose excreted at 24 h [36]: 36.8%
dose excreted at 24 h [37]: 49.9%
dose excreted at 24 h [38]: 42.2%
dose excreted at 24 h [39]: 57.8%
dose excreted at 24 h [40]: 30.5%
dose excreted at 24 h [41]: 47.1%
dose excreted at 24 h [42]: 41.8%
dose excreted at 24 h [43]: 47.9%
dose excreted at 24 h [44]: 48.6%
CL/F [45]: 303 mL/min
CL/F [46]: 224 mL/min
CL/F [47]: 279 mL/min
CL/F [48]: 223 mL/min
CL/F [49]: 242 mL/min
CL/F [50]: 184 mL/min
CL/F [51]: 313 mL/min
CL/F [52]: 262 mL/min
CL/F [53]: 193 mL/min
CL renal [54]: 198 mL/min
SMILES: COc1c(N2C[C@@H](C)C[C@H](N)C2)ccc2c(=O)c(C(=O)O)cn(C3CC3)c12 [NEMONOXACIN]
